# According to US8952024B2, “Herbicidal pyrimidone derivatives” (E I du Pont de Nemours and Company, priority 2009, dated 2015):
# Tests used:
# Assay in all cases: Test D pre-/postemergence plant response
# Type in all cases: in vivo
# [1] = system: Surinam grass (Brachiaria decumbens)
# Procedure, shortened: (§1)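 Visual 0–100 scoring (100 = complete control) versus untreated controls after 14–21 greenhouse days. Compounds, formulated in surfactant-containing non-phytotoxic solvent, were applied preemergence to seeded loam/sand and postemergence to 2–18 cm plants (1–4 leaves).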
# [2] = system: large crabgrass (Digitaria sanguinalis)
# Procedure, shortened: as §1
# [3] = system: sandbur (southern sandbur, Cenchrus echinatus)
# Procedure, shortened: as §1
# [4] = system: mallow (common mallow, Malva sylvestris)
# Procedure, shortened: as §1
# kochia (Kochia scoparia) = system: kochia (Kochia scoparia)
# Procedure, shortened: as §1
# [5] = system: barnyardgrass (Echinochloa crus-galli)
# Procedure, shortened: as §1
# [6] = system: quackgrass (Elytrigia repens)
# Procedure, shortened: as §1
# [7] = system: green foxtail (Setaria viridis)
# Procedure, shortened: as §1
# [8] = system: ragweed (common ragweed, Ambrosia elatior)
# Procedure, shortened: as §1
# [9] = system: signalgrass (broadleaf signalgrass, Brachiaria platyphylla)
# Procedure, shortened: as §1
# [10] = system: guineagrass (Panicum maximum)
# Procedure, shortened: as §1
# [11] = system: naked crabgrass (Digitaria nuda)
# Procedure, shortened: as §1
# [12] = system: morningglory (pitted morningglory, Ipomoea lacunosa)
# Procedure, shortened: as §1
# [13] = system: bluegrass (annual bluegrass, Poa annua)
# Procedure, shortened: as §1
# [14] = system: dallisgrass (Paspalum dilatatum)
# Procedure, shortened: as §1
# [15] = system: Russian thistle (Salsola kali); settings: Postemergence
# Procedure, shortened: as §1
# [16] = Postemergence, 31 g ai/ha, scale 0 to 100
# [17] = Postemergence, 125 g ai/ha, scale 0 to 100 (0 no effect, 100 complete control)
# [18] = Postemergence, 62 g ai/ha, scale 0 to 100 (0 no effect, 100 complete control)
# [19] = Preemergence, 16 g ai/ha, scale 0 to 100, 0 no effect, 100 complete control
# [20] = Preemergence, 31 g ai/ha, scale 0 to 100 (0 no effect, 100 complete control)
# [21] = Preemergence, 125 g ai/ha, scale 0 to 100
# [22] = Postemergence, 16 g ai/ha, scale 0 to 100
# [23] = Preemergence, 62 g ai/ha, scale 0 to 100
# [24] = Postemergence, 31 g ai/ha, scale 0 to 100 (0 no effect, 100 complete control)
# [25] = Postemergence, 250 g ai/ha, scale 0 to 100 (0 no effect, 100 complete control)
smiles,measurement,setting,value
O=C1CCCC(O)=C1C(=O)c1cnc(-c2cccs2)n(-c2ccccc2)c1=O [Compound 66],"Plant response rating, Surinam Grass",[1]; [16],60
same,"Plant response rating, Surinam Grass",[1]; [17],90
same,"Plant response rating, Surinam Grass",[1]; [18],90
same,"Plant response rating, Surinam Grass",[1]; [19],0
same,"Plant response rating, Surinam Grass",[1]; [20],80
same,"Plant response rating, Surinam Grass",[1]; [21],98
same,"Plant response rating, Crabgrass, Large",[2]; [22],20
same,"Plant response rating, Crabgrass, Large",[2]; [16],25
same,"Plant response rating, Crabgrass, Large",[2]; [17],35
same,"Plant response rating, Crabgrass, Large",[2]; [18],25
same,"Plant response rating, Crabgrass, Large",[2]; [19],15
same,"Plant response rating, Crabgrass, Large",[2]; [20],30
same,"Plant response rating, Crabgrass, Large",[2]; [23],50
same,"Plant response rating, Crabgrass, Large",[2]; [21],98
same,"Plant response rating, Sandbur",[3]; [16],35
same,"Plant response rating, Sandbur",[3]; [17],90
same,"Plant response rating, Sandbur",[3]; [18],35
same,"Plant response rating, Sandbur",[3]; [19],0
same,"Plant response rating, Sandbur",[3]; [20],5
same,"Plant response rating, Sandbur",[3]; [21],80
same,"Plant response rating, Mallow",[4]; [22],25
same,"Plant response rating, Mallow",[4]; [16],30
same,"Plant response rating, Mallow",[4]; [17],60
same,"Plant response rating, Mallow",[4]; [18],60
same,"Plant response rating, Mallow",[4]; [19],0
same,"Plant response rating, Mallow",[4]; [20],0
same,"Plant response rating, Mallow",[4]; [23],5
same,"Plant response rating, Mallow",[4]; [21],75
same,"Plant response rating, Kochia",kochia (Kochia scoparia); [16],25
same,"Plant response rating, Kochia",kochia (Kochia scoparia); [17],40
same,"Plant response rating, Kochia",kochia (Kochia scoparia); [18],25
same,"Plant response rating, Kochia",kochia (Kochia scoparia); [19],0
same,"Plant response rating, Kochia",kochia (Kochia scoparia); [20],65
same,"Plant response rating, Kochia",kochia (Kochia scoparia); [23],65
same,"Plant response rating, Kochia",kochia (Kochia scoparia); [21],90
same,"Plant response rating, Barnyardgrass",[5]; [22],35
same,"Plant response rating, Barnyardgrass",[5]; [24],65
same,"Plant response rating, Barnyardgrass",[5]; [17],75
same,"Plant response rating, Barnyardgrass",[5]; [18],70
same,"Plant response rating, Barnyardgrass",[5]; [19],0
same,"Plant response rating, Barnyardgrass",[5]; [20],0
same,"Plant response rating, Barnyardgrass",[5]; [23],5
same,"Plant response rating, Barnyardgrass",[5]; [21],75
same,"Plant response rating, Quackgrass",[6]; [22],0
same,"Plant response rating, Quackgrass",[6]; [16],5
same,"Plant response rating, Quackgrass",[6]; [17],5
same,"Plant response rating, Quackgrass",[6]; [18],5
same,"Plant response rating, Quackgrass",[6]; [19],0
same,"Plant response rating, Quackgrass",[6]; [20],0
same,"Plant response rating, Quackgrass",[6]; [21],0
same,"Plant response rating, Foxtail, Green",[7]; [22],20
same,"Plant response rating, Foxtail, Green",[7]; [16],35
same,"Plant response rating, Foxtail, Green",[7]; [17],80
same,"Plant response rating, Foxtail, Green",[7]; [18],65
same,"Plant response rating, Foxtail, Green",[7]; [19],0
same,"Plant response rating, Foxtail, Green",[7]; [20],0
same,"Plant response rating, Foxtail, Green",[7]; [23],0
same,"Plant response rating, Foxtail, Green",[7]; [21],5
same,"Plant response rating, Ragweed",[8]; [22],0
same,"Plant response rating, Ragweed",[8]; [16],0
same,"Plant response rating, Ragweed",[8]; [17],5
same,"Plant response rating, Ragweed",[8]; [18],0
same,"Plant response rating, Ragweed",[8]; [19],0
same,"Plant response rating, Ragweed",[8]; [20],0
same,"Plant response rating, Ragweed",[8]; [21],0
same,"Plant response rating, Signalgrass",[9]; [22],0
same,"Plant response rating, Signalgrass",[9]; [16],10
same,"Plant response rating, Signalgrass",[9]; [17],30
same,"Plant response rating, Signalgrass",[9]; [18],30
same,"Plant response rating, Signalgrass",[9]; [19],0
same,"Plant response rating, Signalgrass",[9]; [20],5
same,"Plant response rating, Signalgrass",[9]; [21],5
same,"Plant response rating, Guineagrass",[10]; [22],5
same,"Plant response rating, Guineagrass",[10]; [16],5
same,"Plant response rating, Guineagrass",[10]; [17],30
same,"Plant response rating, Guineagrass",[10]; [18],10
same,"Plant response rating, Guineagrass",[10]; [19],0
same,"Plant response rating, Guineagrass",[10]; [20],0
same,"Plant response rating, Guineagrass",[10]; [23],0
same,"Plant response rating, Guineagrass",[10]; [21],65
same,"Plant response rating, Crabgrass, Naked",[11]; [16],50
same,"Plant response rating, Crabgrass, Naked",[11]; [17],70
same,"Plant response rating, Crabgrass, Naked",[11]; [18],65
same,"Plant response rating, Crabgrass, Naked",[11]; [19],0
same,"Plant response rating, Crabgrass, Naked",[11]; [20],0
same,"Plant response rating, Crabgrass, Naked",[11]; [23],10
same,"Plant response rating, Crabgrass, Naked",[11]; [21],25
same,"Plant response rating, Morningglory",[12]; [22],65
same,"Plant response rating, Morningglory",[12]; [16],70
same,"Plant response rating, Morningglory",[12]; [17],90
same,"Plant response rating, Morningglory",[12]; [18],90
same,"Plant response rating, Morningglory",[12]; [19],0
same,"Plant response rating, Morningglory",[12]; [20],0
same,"Plant response rating, Morningglory",[12]; [23],90
same,"Plant response rating, Morningglory",[12]; [21],95
same,"Plant response rating, Bluegrass",[13]; [22],0
same,"Plant response rating, Bluegrass",[13]; [24],0
same,"Plant response rating, Bluegrass",[13]; [17],0
same,"Plant response rating, Bluegrass",[13]; [18],0
same,"Plant response rating, Bluegrass",[13]; [19],0
same,"Plant response rating, Bluegrass",[13]; [20],0
same,"Plant response rating, Bluegrass",[13]; [23],0
same,"Plant response rating, Bluegrass",[13]; [21],0
same,"Plant response rating, Dallisgrass",[14]; [22],35
same,"Plant response rating, Dallisgrass",[14]; [16],35
same,"Plant response rating, Dallisgrass",[14]; [17],60
same,"Plant response rating, Dallisgrass",[14]; [18],35
same,"Plant response rating, Dallisgrass",[14]; [19],0
same,"Plant response rating, Dallisgrass",[14]; [20],5
same,"Plant response rating, Dallisgrass",[14]; [23],5
same,"Plant response rating, Dallisgrass",[14]; [21],95
CCCCn1c(-c2ccccc2)ncc(C(=O)C2=C(O)C3CCC(C3)C2=O)c1=O (centres unmarked) [Compound 240],"Plant response rating, Surinam Grass",[1]; [16],70
same,"Plant response rating, Surinam Grass",[1]; [17],95
same,"Plant response rating, Surinam Grass",[1]; [25],95
same,"Plant response rating, Surinam Grass",[1]; [18],70
same,"Plant response rating, Crabgrass, Large",[2]; [16],40
same,"Plant response rating, Crabgrass, Large",[2]; [17],65
same,"Plant response rating, Crabgrass, Large",[2]; [25],70
same,"Plant response rating, Crabgrass, Large",[2]; [18],65
same,"Plant response rating, Sandbur",[3]; [16],70
same,"Plant response rating, Sandbur",[3]; [17],90
same,"Plant response rating, Sandbur",[3]; [25],90
same,"Plant response rating, Sandbur",[3]; [18],70
same,"Plant response rating, Mallow",[4]; [16],10
same,"Plant response rating, Mallow",[4]; [17],60
same,"Plant response rating, Mallow",[4]; [25],60
same,"Plant response rating, Mallow",[4]; [18],40
same,"Plant response rating, Kochia",kochia (Kochia scoparia); [16],20
same,"Plant response rating, Kochia",kochia (Kochia scoparia); [17],65
same,"Plant response rating, Kochia",kochia (Kochia scoparia); [25],70
same,"Plant response rating, Kochia",kochia (Kochia scoparia); [18],65
same,"Plant response rating, Barnyardgrass",[5]; [16],80
same,"Plant response rating, Barnyardgrass",[5]; [17],95
same,"Plant response rating, Barnyardgrass",[5]; [25],95
same,"Plant response rating, Barnyardgrass",[5]; [18],95
same,"Plant response rating, Quackgrass",[6]; [16],25
same,"Plant response rating, Quackgrass",[6]; [17],35
same,"Plant response rating, Quackgrass",[6]; [25],50
same,"Plant response rating, Quackgrass",[6]; [18],30
same,"Plant response rating, Foxtail, Green",[7]; [16],95
same,"Plant response rating, Foxtail, Green",[7]; [17],98
same,"Plant response rating, Foxtail, Green",[7]; [25],98
same,"Plant response rating, Foxtail, Green",[7]; [18],98
same,"Plant response rating, Ragweed",[8]; [16],70
same,"Plant response rating, Ragweed",[8]; [17],80
same,"Plant response rating, Ragweed",[8]; [25],90
same,"Plant response rating, Ragweed",[8]; [18],75
same,"Plant response rating, Russian Thistle","[15]; 31 g ai/ha, scale 0 to 100",35
same,"Plant response rating, Russian Thistle","[15]; 250 g ai/ha, scale 0 to 100 (0 no effect, 100 complete control)",35
same,"Plant response rating, Russian Thistle","[15]; 62 g ai/ha, scale 0 to 100 (0 no effect, 100 complete control)",35
same,"Plant response rating, Signalgrass",[9]; [16],20
same,"Plant response rating, Signalgrass",[9]; [17],75
same,"Plant response rating, Signalgrass",[9]; [25],85
same,"Plant response rating, Signalgrass",[9]; [18],75
same,"Plant response rating, Guineagrass",[10]; [16],40
same,"Plant response rating, Guineagrass",[10]; [17],80
same,"Plant response rating, Guineagrass",[10]; [25],80
same,"Plant response rating, Guineagrass",[10]; [18],65
same,"Plant response rating, Morningglory",[12]; [16],65
same,"Plant response rating, Morningglory",[12]; [17],90
same,"Plant response rating, Morningglory",[12]; [25],95
same,"Plant response rating, Morningglory",[12]; [18],80
same,"Plant response rating, Bluegrass",[13]; [16],5
same,"Plant response rating, Bluegrass",[13]; [17],35
same,"Plant response rating, Bluegrass",[13]; [25],35
same,"Plant response rating, Bluegrass",[13]; [18],35
same,"Plant response rating, Dallisgrass",[14]; [16],5
same,"Plant response rating, Dallisgrass",[14]; [17],75
same,"Plant response rating, Dallisgrass",[14]; [25],75
same,"Plant response rating, Dallisgrass",[14]; [18],70
